Key:
[1] = test system: arthritic rats; assay: Arthritis scores, adjuvant-induced arthritis in rats; type: in vivo, rat; settings: i.p. 5×/week; scale 0-4, scored 2×/week
Description: (§1) Experimental adjuvant-induced arthritis was induced according to a previously described method (Paulos et al., 2006; van Eden et al., 1996). Briefly, adjuvant was prepared by adding finely ground heat-killed Mycobacterium butyricum(Difco Laboratories, MI, USA) in mineral oil (Sigma-Aldrich, MO, USA) at a final concentration of 1 mg/ml. The adjuvant was kept under constant stirring to ensure homogenous distribution of the mycobacterial particles. Immunized rats were anesthetized with ketamine and xylazine (100 mg/kg and 13 mg/kg, respectively) and injected in the right hind paw with 100 μl of the mycobacterial suspension. Paw inflammation was monitored daily until the first symptoms of RA appeared on the left, non-injected hind paw. […]
(§2) To compare the efficacies of the various folate-hapten conjugates in treating RA, arthritic rats were injected i.p. 5×/week with either: 1) vehicle alone (PBS), 2) 100 nmol/kg of folate-FITC, 3) 30 nmol/kg folate-DNP1, 4) 200 nmol/kg folate-DNP1, 5) 30 nmol/kg folate-DNP2, 6) 200 nmol/kg folate-DNP2, 7) 30 nmol/kg folate-DNP3, 8) 200 nmol/kg folate-DNP3, 9) 30 nmol/kg folate-TNP, or 10) 200 nmol/kg folate-TNP. Paw volumes, arthritis scores, spleen enlargement, bone degradation, and the biodistribution of FR+macrophages were then quantitated as a function of time during therapy, as described below. […]

[2] = molecular target: T1, hFR-β (Homo sapiens, UniProt P14207); assay: Relative binding affinity of folate-hapten conjugates, displacement of 3H-folic acid from CHO-β cells; settings: 10 nM 3H-folic acid
T1 construct: expressed in transfected cells; host or cells: CHO-β cells (CHO cells expressing hFR-β)
T1 sequence (P14207 17-230): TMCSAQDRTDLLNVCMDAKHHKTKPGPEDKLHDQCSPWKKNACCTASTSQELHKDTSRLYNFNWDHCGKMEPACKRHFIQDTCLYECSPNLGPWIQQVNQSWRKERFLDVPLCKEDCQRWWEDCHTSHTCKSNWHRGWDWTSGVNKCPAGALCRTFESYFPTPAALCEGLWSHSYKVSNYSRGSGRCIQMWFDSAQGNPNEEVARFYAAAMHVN
Description: The relative binding affinities of folate-hapten conjugates to hFR-β were examined using a previously described method (Reddy et al., 2004). CHO-β cells expressing hFR-β were seeded on 48-well plates at 70% confluence and cultured at 37° C. in folate-deficient RPMI1640 medium (Invitrogen, CA, USA) supplemented with 1× penicillin/streptomycin (Gibco, Calif., USA) and 10% fetal bovine serum (FBS) (Atlanta Biologicals, GA, USA) in a 5% CO2 humidified incubator. Twenty-four hours later, cells were washed twice with PBS (pH 7.4), after which a 10 nM solution of ^3H-folic acid (GE Healthcare, NJ, USA) was added with increasing concentrations (10^−10M to 10^−5M) of either folate-FITC, folate-DNP1, folate-DNP2, folate-DNP3, or folate-TNP in cell culture medium. Cells were incubated at 37° C. for 1 h and washed 3× with 0.5 ml PBS. 0.5 ml of 1.0% sodium dodecyl sulfate (SDS) in PBS was added to each well, and after 5 min, cell lysates were collected and transferred to vials containing scintillation cocktail and counted for radioactivity. Relative binding affinity was defined as the molar ratio required for displacement of 50% of bound ^3H-folic acid from the cell surface.

[3] = test system: FR-β+ activated macrophages; assay: 99mTc-EC20 biodistribution in spleens and livers of arthritic rats; type: in vivo, rat; settings: 4 h after i.p. 99mTc-EC20 (67 nmol/kg); versus PBS-treated group
Description: To compare the efficacies of the various folate-hapten conjugates in treating RA, arthritic rats were injected i.p. 5×/week with either: 1) vehicle alone (PBS), 2) 100 nmol/kg of folate-FITC, 3) 30 nmol/kg folate-DNP1, 4) 200 nmol/kg folate-DNP1, 5) 30 nmol/kg folate-DNP2, 6) 200 nmol/kg folate-DNP2, 7) 30 nmol/kg folate-DNP3, 8) 200 nmol/kg folate-DNP3, 9) 30 nmol/kg folate-TNP, or 10) 200 nmol/kg folate-TNP. Paw volumes, arthritis scores, spleen enlargement, bone degradation, and the biodistribution of FR+macrophages were then quantitated as a function of time during therapy, as described below.
Paw volumes were measured 2×/week by multiplying length, height, and width of the non-injected hind paw (Paulos et al., 2006). […] Spleen enlargement was assessed 25 days after initial treatment by euthanizing the animal and measuring the weight of the resected organs. Bone degradation of the non-injected hind paw was evaluated by x-ray radiography in one representative rat from each hapten group treated at 200 nmol/kg folate-hapten conjugate. The biodistribution of FR+ macrophages in each treatment group was also quantified using the FR-targeted radioimaging agent, ^99mTc-EC20, which was prepared as described previously (Turk et al., 2002). Briefly, each rat was injected i.p. with 500 μCi of radioactivity at a dose of 67 nmol/kg of EC20. […]

[4] = test system: arthritic rats; assay: Paw volumes of non-injected hind paws, adjuvant-induced arthritis in rats; type: in vivo, rat; settings: i.p. 5×/week, 30 or 200 nmol/kg (folate-FITC 100 nmol/kg)
Description: as §1, §2

[5] = test system: arthritic rats; settings: previous dosing studies; cited from earlier work

SMILES	relative potencies in preventing the increase in arthritis score [1]	rank order of binding affinity of the folate-hapten conjugates [2]	uptake of 99mTc-EC20 in spleens and livers [3]	paw swelling (volume changes in non-injected hind paws) [4]	daily dose giving optimal responses [5] [nmol/kg]
Nc1nc2ncc(CNc3ccc(C(=O)N[C@H](CCC(=O)N[C@H](CCCCNc4c([N+](=O)[O-])cc([N+](=O)[O-])cc4[N+](=O)[O-])C(=O)O)C(=O)O)cc3)nc2c(=O)[nH]1 [folate-TNP]	TNP=FITC>DNP1>DNP2>DNP3	folate-DNP3>folate-DNP2>folate-DNP 1>folate-TNP>folate-FITC	folate-DNP1 and folate-DNP2 appeared to be superior	more effective than any of the folate-DNP conjugates, but similar in potency to folate-FITC	–
Nc1nc2ncc(CNc3ccc(C(=O)NC(CCC(=O)NCCNC(=S)Nc4ccc(C(=O)O)c(-c5c6ccc(=O)cc-6oc6cc(O)ccc56)c4)C(=O)O)cc3)nc2c(=O)[nH]1 (stereo not shown) [folate-FITC, reference compound]	TNP=FITC>DNP1>DNP2>DNP3	folate-DNP3>folate-DNP2>folate-DNP 1>folate-TNP>folate-FITC	–	–	100

— US20090012009A1, “Composition and Method for Treating Inflammatory Disease” (priority 2007, published 2009)
